Measured values reported in PubChem BioAssay (NCI).
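Results reflect a 48-hour exposure of cells in 96-well plates to compound at five concentrations. Here, GI50 denotes the concentration required for 50% inhibition of growth. TGI: total growth inhibition.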

Tests used:
Assay in all cases: NCI tumour cell line growth inhibition, 48 h
[1] = tested on: HOP-18 NSCLC
[2] = tested on: KM20L2 colon
[3] = tested on: M19-MEL melanoma
[4] = tested on: RXF-631 renal
[5] = tested on: XF 498 CNS
[6] = tested on: DMS 114 small cell lung
[7] = tested on: MDA-N

SMILES	TGI [1] [µM]	TGI [2] [µM]	TGI [3] [µM]	TGI [4] [µM]	TGI [5] [µM]	TGI [6] [µM]	TGI [7] [µM]	GI50 [7] [µM]
COC(=O)C1C(C(=O)OC)C2C(=O)C3C(C(=O)OC)C(C(=O)OC)C3C(=O)C12 (configuration not stated)	> 100	> 100	> 100	> 100	> 100	–	–	–
COc1cc([C@@H]2c3cc4c(cc3[C@@H](NC(=O)c3ccc(C#N)cc3)C3COC(=O)[C@@H]32)OCO4)cc(OC)c1O (some centres not stated)	> 100	4.51	15.6	–	–	2.27	–	–
COc1cc(Nc2cnc3ccc(C(F)(F)F)cc3n2)cc(OC)c1OC	> 100	22.5	> 100	–	–	–	–	–
CC(Br)C(=O)NC(CO)C(=O)O (configuration not stated)	–	–	–	–	–	–	> 100	–
O=C1/C(=C\c2ccccc2)CN(C(=O)CCN2CCCCC2)C/C1=C/c1ccccc1	7.37	2.97	1.78	4.69	3.84	3.05	5.4	–
O=C1NC(=O)c2c1n(Cc1ccccc1)c(=O)n2Cc1ccccc1	> 100	> 100	> 100	–	–	> 100	–	–
CC1=C(C(=O)Nc2ccccc2)C(c2ccc(N(C)C)cc2)C(C(=O)Nc2ccccc2)=C(C)N1	> 100	7.26	> 28.9	–	> 100	6.57	> 100	–
Cc1ccc2c(c1)CN1c3ccc(C)cc3CN2C1c1ccccc1O	–	–	> 100	–	–	> 100	–	–
NNC(=O)C(=O)N/N=C1/CCCC1C(=O)CCC(=O)Nc1ccc(Cl)cc1 (configuration not stated)	> 100	> 100	> 100	> 100	> 100	> 100	–	–
Nc1ncc(Cc2ccc3c(c2)OCO3)c(N)n1	–	–	–	–	–	–	> 100	–
OCc1cc2c(cn1)[nH]c1ccc(NCc3ccccc3)cc12	–	55.6	60.3	> 100	59.2	51.1	–	–
COC1N(C2CC(O)C(CO)O2)C(=O)NC(=O)C1(F)Br (configuration not stated)	> 50	50	–	50	50	50	> 100	–
CC1=N/C(=C\c2ccc(/C=C3/N=C(C)OC3=O)cc2)C(=O)O1	> 100	> 100	> 100	–	> 100	> 100	–	–
CCN(C)c1nc(N(C)CC)c2nc(N(C)CC)nc(N(C)CC)c2n1	–	–	–	–	–	–	> 100	–
COCC([C@@H](O)C(O)C(=O)NCC[C@@H](C)c1nc(/C=C/CC2OC3(C[C@H](O)C2C)OC(C(C[C@H](O)C(C)[C@H](O)C(C)/C=C(C)/C(C)=C/C=C/C(C)=C/C#N)OC)[C@@H](OP(=O)(O)O)C3(C)C)co1)N(C)C (some centres not stated)	–	–	–	–	–	–	0.000358	–
O=c1/c(=C/c2ccccc2[N+](=O)[O-])sc2nnc(-c3cccnc3)n12	> 100	> 100	> 100	> 100	> 100	> 100	–	–
CCc1ccccc1NC(=O)c1cccc([N+](=O)[O-])c1O	> 100	93.3	82.4	> 100	57.9	51.5	–	–
Cc1ccc(S(=O)(=O)OCC/C(=C\[Si](C)(C)C)c2ccccc2)cc1	> 100	> 100	> 100	–	> 100	> 100	–	–

SMILES	TGI [1] [µM]	TGI [2] [µM]	TGI [3] [µM]	TGI [4] [µM]	TGI [5] [µM]	TGI [6] [µM]	TGI [7] [µM]	GI50 [7] [µM]
COC(=O)CCC(NC(=S)N/N=C/c1cccs1)C(=O)OC (configuration not stated)	> 100	> 100	> 100	> 100	> 100	> 100	–	–
COc1cc2oc(-c3ccc(O)cc3)cc(=O)c2c(O)c1C1OC(CO)C(O)C(O)C1O (configuration not stated)	> 100	> 100	> 100	–	> 100	> 100	–	–
O=C(NC12CC3CCC1CC(C3)C2)[C@@H]1CCCN1C(=O)OCc1ccccc1 (some centres not stated)	> 100	> 100	> 100	–	> 100	> 100	–	–
COc1cc(CNc2nc3cc(N)cc(N)c3nc2-c2ccccc2)cc(OC)c1	–	–	–	–	–	–	5.21	2.33
COc1nc2c(c(O)c(C)c(=O)n2OC2OCC(OC(C)=O)C(OC(C)=O)C2OC(C)=O)c(=O)n1C (configuration not stated)	–	> 100	> 100	–	> 100	> 100	–	–
O=c1cc(O)cc2n1CCC2	–	> 100	–	> 100	> 100	> 100	–	–
O=[N+]([O-])c1cccc(C2=NN(c3ccccc3)C3c4cc(Br)ccc4OCC23)c1 (configuration not stated)	> 100	> 100	> 100	–	> 100	> 100	–	–
N#C/C(=C\c1cc(OCc2ccccc2)c(OCc2ccccc2)cn1)C(N)=O	–	> 100	> 100	> 100	> 100	> 100	–	–
CCOC(=O)c1nc(C)oc1C(F)(F)F	–	> 100	> 100	–	> 100	> 100	–	–
O=C1[C@@H]2C(c3c(Cl)cccc3Cl)=NO[C@@H]2C(=O)N1c1ccc(Cc2ccc(N3C(=O)[C@H]4C(c5c(Cl)cccc5Cl)=NO[C@H]4C3=O)cc2)cc1	> 100	> 100	> 100	–	> 100	> 100	–	–
CCCCCCN(CCCCCC)C(=S)N/N=C(\C)c1ccccn1	–	2.34	–	3.67	–	2.29	5.56	–
O=[N+]([O-])c1ccc(Cl)c2c([N+](=O)[O-])cccc12	–	–	–	–	–	–	4.29	–
CCc1cccc(C)c1NC(=O)CCc1nc(=S)[nH][nH]1	> 100	> 100	> 100	–	> 100	> 100	–	–
O=C(NC1C(=O)NNC1c1cccc([N+](=O)[O-])c1)c1ccccc1 (configuration not stated)	> 100	> 100	> 100	> 100	> 100	> 100	–	–
CCCCCCCC(=O)OCC(COC(=O)C(C)(C)C)OC(=O)Cc1ccccc1 (configuration not stated)	> 100	> 100	> 100	–	–	> 100	–	–
O=[N+]([O-])c1ccccc1C1SCc2nc3ccccc3n21 (configuration not stated)	> 100	–	–	> 100	> 100	> 100	–	–
O=C1Oc2ccccc2C(=O)/C1=C1/C=C(c2ccccc2)SS1	–	–	–	–	–	–	> 100	–
Cc1nc2ccccc2nc1CC(=O)C(=O)Nc1ccc(Cl)cc1Cl	–	> 100	> 100	> 100	–	–	–	–
